Read-outs that look alike come from different tables or passages of the source. Ends that are not written are not given here.

This is an account of results in article PMC11345766, “Computational Design of Pore-Forming Peptides with Potent Antimicrobial and Anticancer Activities” (Journal of Medicinal Chemistry, 2024).

The test system of series [1] is MOLM-13, MEC-1 and SU-DHL-4 cancer cell lines. To be noted: read-out: IC50 values over three cancer cell lines; after 24 h of incubation; physiological pH. The protocol:
Anticancer activity of peptides against acute myeloid leukemia MOLM-13, chronic lymphocytic leukemia MEC-1, and diffuse large B-cell lymphoma SU-DHL-4 cell lines was tested using a WST cell viability assay. Cells were cultured in 75 cm^2 culture flasks at 37 °C in 5% CO2 according to the DSMZ recommendations before the start of the experiment. Then, the cells were seeded into 96-well plates in quadruplicate at 2.5 × 10^4 cells/well for SU-DHL-4, and 5 × 10^4 cells/well for MEC-1 and MOLM-13. Cells were treated with either peptides or PBS alone (negative control) for 24–72 h at 37 °C in 5% CO2. After incubation, cell viability was measured by WST-1 (Roche) according to the manufacturer’s instructions using Tecan microplate reader Infinite M200 PRO Plex and expressed as percentage compared to control.

Series [2] concerns HL-60, K-562, MCF-7 and HCT-116 cells. As to the kind of experiment: Viability by flow cytometry DiOC6/7AAD staining, effect of pH and media. The series is classed as cell-based, human. To be noted: 10 μM, 1 h; RPMI, DMEM, PBS at pH 8, 7, 6 and ∼7.6. The protocol: To investigate the effect of pH and media on anticancer activity, we further tested the peptides against four cell lines, HL-60, K-562, and MCF-7, and the colon cancer cells HCT-116, cultured in three different media, namely, RPMI, DMEM, and PBS, each adjusted to three different pH values 8, 7, and 6, and additionally one case without pH adjustment (∼7.6) (Figure 6c). To avoid pH changes due to the natural buffering of the CO2-bicarbonate system used in cell culture, the peptides were tested at a concentration of 10 μM for only 1 h, as the cell lysis effect was already apparent within 30 min of exposure (Figure S9d).
Effects of pH and culture medium on the anticancer activity of peptides against acute myeloid leukemia HL-60, chronic myeloid leukemia K-562, breast adenocarcinoma MCF-7, and colon cancer cells HCT-116 cultured in three different media RPMI (#21875034, Gibco), DMEM (#LM-D1110/500, Biosera), and PBS adjusted to three different pH values 8, 7, and 6, and a medium without pH adjustment (∼7.6), were tested using flow cytometry DiOC6/7AAD (3,3-dihexyloxacarbocyanine iodide/7-amino-actinomycin D) staining assay, as described previously.[102] Media pH was adjusted twice, i.e., 1 day before the experiment and immediately before the experiment. Medium was supplemented with 10% heat-inactivated FBS, glutamine, sodium pyruvate, and antibiotics (100 U/mL penicillin and 100 μg/mL streptomycin). […] To determine cell viability, cells were incubated with DiOC6 (Thermo Fisher Scientific) and 7AAD (Thermo Fisher Scientific) for 15 min at 37 °C and cell viability was measured using a BriCyte E6 flow cytometer (Mindray); viable cells were considered as DiOC6-positive and 7AAD-negative.
The effect of pH on peptide activity in cancer cells was evaluated by the multiway ANOVA followed by Tukey post hoc test. Regarding the comparison of the effect of the medium, we analyzed the data from Figure 6c by comparing RPMI medium and DMEM of the same pH, and statistical significance was assessed using the multiway ANOVA followed by Tukey post hoc test. […]
Background: Flow cytometry measures light scatter and fluorescence of single cells or particles in a stream.

The test system of a further series is S. carnosus (CCM 4838T). Briefly: microbe, parasite or virus in culture. In kind it is cell-based, Staphylococcus carnosus. To be noted: CCM 4838, 24 h; read-out: Antimicrobial activity (MIC) S. carnosus (CCM 4838T). An excerpt: (§1) To test antimicrobial activity, all peptides were initially screened, in a broth microdilution assay, against Gram-negative Escherichia coli (TOP10) and Gram-positive Staphylococcus carnosus (CCM 4838T) Biosafety Level 1 (BSL-1) bacteria (Table 2). […] Four other mutants (LP3, LP26, LP36, and LP39) had higher activity than LP1 against E. coli, and two mutants (LP23 and LP32) had higher activity than LP1 against S. carnosus. Six mutants (LP29, LP30, LP31, LP33, LP40, and LP43) were not active against one or both bacteria, even at the highest concentration tested (50 μM).
(§2) Antimicrobial activity against E. coli TOP10 and S. carnosus CCM 4838T was tested using the broth microdilution assay. Bacteria were cultured in MHA Petri dish for 24 h, subcultured in an MHB test tube for 6 h at 37 °C, and diluted to 10^6 CFU/mL (OD600). […] Dilution series was prepared for concentrations 50 to 0.1 μM in a flat-bottom 96-well plate, inoculated with bacteria, and incubated for 24 h at 37 °C. Growth control wells were free from test compounds, and sterility control wells were free from bacteria. Bacterial MIC was determined as the lowest concentration of test compounds that inhibited visible growth of bacteria (i.e., no visible turbidity).

The test system of series [3] is human red blood cells (HRBCs). The settings on record: read-out: Hemolysis toxicity (IC50); 1 h incubation. As to the method: To investigate the toxicity for normal human cells, all peptides were first screened against human red blood cells (HRBCs) using a hemolysis assay (Table 2 and Figure S4).
Hemolysis toxicity was tested against HRBCs. Blood samples, collected from the university hospital, were centrifuged twice at 700 × g and once at 1000 × g for 8 min at 4 °C to obtain erythrocyte pellets. Supernatants were always discarded, and pellets were resuspended in PBS (the same as the antimicrobial susceptibility assay). The final RBC suspension was 0.5% (v/v). Dilution series was prepared for concentrations 50 to 0.1 μM in a V-bottom 96-well plate, followed by the addition of RBC suspension. […] After 1 h of incubation at 37 °C, the well plate was centrifuged at 1000 × g for 10 min at 4 °C. The supernatant, collected in a flat-bottom well plate, was measured for OD415 using Tecan Microplate Reader Infinite F500.

How the values of series [4] were obtained: (§3) Cytotoxicity against human immortalized keratinocytes HaCaT, human alveolar basal epithelial A549 (derived from adenocarcinoma), and murine macrophages RAW 264.7 was tested using MTT [3-(4,5-dimethylthiazol-2-yl)-2,5-diphenyltetrazolium bromide] assay. Cells were cultured in Dulbecco’s modified Eagle’s medium (DMEM) containing 4 mM glutamine for HaCaT, or 2 mM glutamine for A549 and RAW 264.7 cells, supplemented with 10% heat-inactivated fetal bovine serum (FBS) and antibiotics (0.1 mg/mL penicillin and streptomycin). Nonessential amino acids (NEAA) and sodium pyruvate (1 mM) were added for macrophages. Cell lines were grown in 25 and 75 cm^2 flasks at 37 °C in a humidified atmosphere with 5% CO2. Cells were suspended in DMEM, containing glutamine, NEAA, and sodium pyruvate (as described above), supplemented with 2% FBS, plated in 96-well plates at 4 × 10^4 cells/well, and incubated at 37 °C in a 5% CO2 atmosphere. After overnight incubation, the medium was replaced with fresh DMEM supplemented with peptides at different concentrations: 2, 4, 8, 16, 32, 64, and 128 μM. Negative controls were cells without peptides. After 24 h of peptide treatment at 37 °C in a 5% CO2 atmosphere, medium was replaced with Hank’s buffer (136 mM NaCl, 0.34 mM Na2HPO4, 0.44 mM KH2PO4, 5.4 mM KCl, 4.1 mM NaHCO3, supplemented with 5.5 mM D-glucose) containing 0.5 mg/mL MTT. Mitochondrial dehydrogenases converted soluble yellow dye MTT to insoluble purple formazan. After 4 h of incubation, acidified isopropanol was added to dissolve formazan crystals and measured for OD570 using Tecan microplate reader Infinite M200 (Salzburg, Austria).

How the values of series [5] were obtained:
as §3
This is another data set of the same source.

Series [6] in a line: Calcein dye leakage assay from LUVs. The series is classed as biochemical. The settings on record: P:L 1:100; pH 7.4. An excerpt: To verify the pore-forming mechanism of action of the designed AMPs, we performed a calcein leakage assay. […] These lipid vesicles were used as simple mimics of bacterial membranes.[58] At the lowest tested peptide-to-lipid (P:L) ratio of 1:100 (mol/mol), three mutants (LP18, LP26, and LP40) caused >90% leakage, which was higher than the leakage caused by LP1 (87%). […] At the same concentration, LP23 caused leakage equivalent to that caused by LP1. Other mutants had lower leakage activity. At a higher P:L ratio of 1:50, all the abovementioned mutants caused 100% leakage, equivalent to that caused by LP1.
Pore-forming activity was tested using a dye leakage assay measuring the leakage of self-quenching fluorescent dye calcein from POPC:POPG (1:1 mol/mol) LUVs. DiD was mixed with lipids (1:500 mol/mol), and lipid film was created by evaporating chloroform, followed by 4 h of desiccation. Dried lipid film was dissolved in calcein buffer (35 mM calcein, 25 mM NaH2PO4·H2O and Na2HPO4·7H2O (3:7 mol/mol), 20 mM NaCl, and 1 mM EDTA). After 10 freeze–thaw cycles, the sample was extruded 50 times through a 100 nm pore size polycarbonate membrane filter. Free calcein in solution was removed using a HiTrap Desalting column. The concentrations of LUVs and peptides were adjusted to 0.02 and 0.1 mM, respectively, in PBS (25 mM NaH2PO4·H2O and Na2HPO4·7H2O (3:7 mol/mol), 100 mM NaCl, and 1 mM EDTA). The investigated P/L ratio was from 1:100 to 1:10 (mol/mol). Fluorescence intensity was measured using a HORIBA Scientific Jobin Yvon FluoroLog-3 Modular Spectrofluorometer (USA). Excitation and emission wavelengths were set to 495 and 520 nm, respectively. Triton X-100 10% caused 100% leakage used for normalization.

Another series concerns E. coli (TOP10). Briefly: Broth microdilution antimicrobial susceptibility assay. In kind it is cell-based, Escherichia coli. To be noted: TOP10, 24 h.
Excerpt: as §1, §2

The procedure of series [7]: as §3, with “After 24 h of peptide treatment at 37 °C in a 5% CO2 atmosphere, medium was replaced with Hank’s buffer (136 mM NaCl, 0.34 mM Na2HPO4, 0.44 mM KH2PO4, 5.4 mM KCl, 4.1 mM NaHCO3, supplemented with 5.5 mM D-glucose) containing 0.5 mg/mL MTT. Mitochondrial dehydrogenases converted soluble yellow dye MTT to insoluble purple formazan.” left out
This is another data set of the same source.

Series [8] has as its system normal B and T lymphocytes, granulocytes, and monocytes in whole blood. As to the kind of experiment: Viability by flow cytometric staining in whole blood. In kind it is cell-based, human. The settings on record: up to the highest tested concentration of 50 μM; 16 h. As to the method: Finally, we tested the effect of LP1 and LP40 on healthy primary cells in whole blood from a healthy donor (Figure S11).
The whole blood was seeded in a 96-well plate at 200 μL/well and treated with peptides for 16 h. The samples were then stained with anti-CD3 (FITC, Sony), anti-CD14 (APC-Cy7, Sony), and anti-CD19 (PE, Beckman Coulter) antibodies and incubated for 20 min at room temperature in the dark. The cells were then incubated with red blood cell lysis buffer for 10 min at room temperature, centrifuged, resuspended in PBS containing SYTOX Blue Dead Cell Stain (Thermo Fisher Scientific) and measured using a FACSVerse flow cytometer (BD Biosciences).

The conditions of series [9]: single intraperitoneal dose at 10 times the MIC.
Procedure: Neutropenic mice were infected intramuscularly (in the right thigh) with 10^6 cells per mL of Gram-negative A. baumannii (ATCC 19606).
(a) Schematic of the deep thigh infection model in which bacteria are injected intramuscularly at day 4 and peptides are administered intraperitoneally also at day 4 to assess their anti-infective activity. Mice were euthanized 4 days postinfection (day 8). Each group consisted of six mice (n = 6), and the bacterial loads used to infect the mice derived from three different inocula. […] Polymyxin B (0.006 mg/kg) and levofloxacin (0.014 mg/kg) were used as the reference antibiotics. Statistical significance was done using one-way ANOVA followed by Dunnett’s test. Violin plots represent the median, upper quartile, and lower quartile. (c) Mouse weight was monitored to exclude possible toxic effects of the peptides.
Six-week-old female CD-1 mice (obtained from Charles River; stock number 18679700-022) underwent neutropenia induction via two intraperitoneal doses of cyclophosphamide (150 mg kg^–^1) administered with a 72 h interval. One day later, the mice received an intramuscular injection containing A. baumannii ATCC 19606 (10^6 CFU mL^–1) in the right thigh. Bacteria were cultured in LB broth, washed twice with PBS (pH 7.4), and resuspended to the desired concentration. […] Polymyxin B (0.006 mg/kg) and levofloxacin (0.014 mg/kg) were used as the reference antibiotics. Prior to each injection, mice were anesthetized with isoflurane and their respiratory rate and pedal reflexes were monitored. Subsequently, we observed the infection establishment and euthanized the mice. The infected area was excised 4 days postinfection (i.e., 8 days after the beginning of the experiment), homogenized using a bead beater for 20 min (25 Hz), and 10-fold serially diluted for CFU quantification on MacConkey agar plates. Each experimental group comprised three mice. All experiments were conducted blindly, and no animals were excluded from the analysis. Statistical significance was assessed using one-way ANOVA followed by Dunnett’s test on log10-transformed data to mitigate outlier effects; p values are reported for each group, with all groups compared to the untreated control group.
The subject of series [10] is murine macrophages RAW 264.7. To be noted: 24 h. As to the method:
as §3

The next series concerns E. coli (E1098). To be noted: E1098, 18 h.

Broadly, the IC50 is the concentration at which inhibition is half-maximal. For `CC[C@H](C)[C@H](NC(=O)CN)C(=O)NCC(=O)N[C@@H](C)C(=O)N[C@H](C(=O)N[C@@H](CC(C)C)C(=O)N[C@@H](CCCCN)C(=O)N[C@H](C(=O)N[C@@H](CC(C)C)C(=O)N[C@H](C(=O)N[C@H](C(=O)NCC(=O)N[C@@H](CC(C)C)C(=O)N1CCC[C@H]1C(=O)N[C@@H](C)C(=O)N[C@@H](CC(C)C)C(=O)N[C@H](C(=O)N[C@@H](CO)C(=O)N[C@@H](Cc1c[nH]c2ccccc12)C(=O)N[C@H](C(=O)N[C@@H](CCCCN)C(=O)N[C@@H](CCCNC(=N)N)C(=O)N[C@@H](CCCCN)C(=O)N[C@@H](CCCNC(=N)N)C(=O)N[C@@H](CCC(N)=O)C(=O)N[C@@H](CCC(N)=O)C(N)=O)[C@@H](C)CC)[C@@H](C)CC)[C@@H](C)O)[C@@H](C)O)C(C)C)C(C)C` [Melittin, reference compound], in [1], the IC50 was less than 5 µM. In series [2], the “Activity against cancer cells (cell viability) as a function of pH and medium” value is “did not allow cell growth”.

Consider “KKKKIKKIIKKIFQFINQIDNQIQDIKQNK-NH2 [LP33]”, for which the MIC is greater than 50 µM in the series on S. carnosus (CCM 4838T) and 50 µM in the series on E. coli (TOP10). Moreover, the IC50 in series [3] is greater than 50 µM; in series [4] it was less than 2 µM; in series [5], greater than 128 µM; in series [7], 27 µM. Moreover, in series [6], the “Calcein leakage (%) from LUVs at P:L 1:100 (mol/mol)” value is 28.3 ± 9.3%.

On to HHHHLKKILKKLFQFINQLDNQLQDIHHHH [LP40], for which the “Effect on healthy primary cells in whole blood” value in [8] is given as “no apparent deleterious effect”. The IC50 in series [4], in series [5] and in [7] was greater than 70 µM throughout. Besides, in series [9], the “Change in mouse weight” value is “no significant change in mouse weight”.

Turning to “KKKKLKKILKKLFQFIQQLDQQLQDIKQQK-NH2 [LP35]”, the figures for the MIC in the series on S. carnosus (CCM 4838T), against E. coli (E1098) and against E. coli (TOP10) were 0.4 µM, 0.5 µM and 0.4 µM, respectively. The same compound displayed an IC50 in [10] of 36 µM. For the same compound, the “Calcein leakage (%) from LUVs at P:L 1:100 (mol/mol)” value in series [6] was 63.3 ± 6.7%.
